This is an account of results in patent US20230295087A1, “AGONISTS OF ROR GAMMAt” (BRISTOL-MYERS SQUIBB COMPANY, priority 2019, published 2023).

The experiment deals with T1, human RORgT (Homo sapiens, UniProt P51449).
T1 construct: expressed in transfected cells
T1 sequence (P51449 267-516): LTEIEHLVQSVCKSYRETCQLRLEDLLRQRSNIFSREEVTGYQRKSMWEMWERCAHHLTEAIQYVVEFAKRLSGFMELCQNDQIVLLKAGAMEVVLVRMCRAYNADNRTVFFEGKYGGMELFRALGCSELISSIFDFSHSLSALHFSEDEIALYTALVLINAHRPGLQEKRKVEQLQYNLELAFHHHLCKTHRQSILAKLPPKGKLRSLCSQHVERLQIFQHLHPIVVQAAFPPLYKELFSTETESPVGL
The experiment is described as follows: RORgT Gal4 Luciferase Reporter Gene Assay. Format: cell-based. The conditions noted are these: engineered Jurkat cells overexpressing RORgT (LBD or full length) fused with Gal4 Luc reporter; 18 hours at 37° C.; luminescence. How it is done:
RORgT Gal4 Luciferase Reporter Gene Assay
25 µL of cryopreserved Jurkat cells over expressing ligand binding domain (LBD) of RORgT (aa267-516, NM_005060) and Gal4 Luc, or full length of human RORgT and Gal4 Luc, were plated in 384-well solid white cell culture plates (PerkinElmer 6007899), with a density of 10,000 cells/well in RPMI 1640 cell culture media (Gibco 11875-085). The media contained 0.1% BSA, 10 mM HEPES (Gibco 15360-080), […] Sodium Pyruvate (Gibco 11360-040), […] Hygromycin B (Invitrogen 10687-010), and […] Blasticidin (Invitrogen R210-01).
100 nL of compound at varying concentrations in 3-fold serial dilution, with final concentrations ranging from 40 µM to 0.67 nM, were added to the cells using Labcyte Echo 550. The compound and the cells were incubated for 18 hours at 37° C. in a cell culture incubator. Cells were then lysed with 15 uL of Steady-Glo Luciferase Assay reagent (Promega EZ550), followed by centrifuging the assay plates at 1500 RPM for 1 minute. Subsequently, the plates were read on the Envision (PerkinElmer). The inhibition of constitutive activity of RORgT achieved by graded concentrations of compound was calculated as a percentage of the luminescence signal window reduction over a control compound.
Background: In a reporter assay the amount or activity of a reporter protein is the signal.
`O=C(CC1CCS(=O)(=O)C1)N1CC[C@@]2(S(=O)(=O)c3ccc(F)cc3)c3ccc(OCc4c(F)cccc4C(F)(F)F)cc3CC[C@@H]12` (mixture of isomers) [Example 17] registered a concentration for a half-maximal effect (EC50) of 8.2 nM. `O=C(O)[C@H]1CC[C@H](C(=O)N2CC[C@@]3(S(=O)(=O)c4ccc(F)cc4)c4ccc(OCc5c(F)cccc5Cl)cc4CC[C@@H]23)CC1` [Example 1, (1r,4r)-4-[(3aR,9bR)-7-[(2-chloro-6-fluorophenyl)methoxy]-9b-(4-fluorobenzenesulfonyl)-1H,2H,3H,3aH,4H,5H,9bH-benzo[e]indole-3-carbonyl]cyclohexane-1-carboxylic acid] registered an EC50 of 8.4 nM.

`O=C(O)[C@H]1CC[C@H](C(=O)N2CC[C@@]3(S(=O)(=O)c4ccc(F)cc4)c4ccc(CCc5c(Cl)cccc5Cl)cc4CC[C@@H]23)CC1` [Example 2, (1r,4r)-4-[(3aR,9bR)-7-[2-(2,6-dichlorophenyl)ethyl]-9b-(4-fluorobenzenesulfonyl)-1H,2H,3H,3aH,4H,5H,9bH-benzo[e]indole-3-carbonyl]cyclohexane-1-carboxylic acid] displayed a concentration for a half-maximal effect (EC50) of 6.8 nM. `O=C(O)[C@H]1CC[C@H](C(=O)N2CC[C@@]3(S(=O)(=O)c4ccc(F)cc4)c4ccc(Oc5c(F)cccc5C(F)(F)F)cc4CC[C@@H]23)CC1` [Example 4, (1R,4r)-4-((3aR,9bR)-7-(2-fluoro-6-(trifluoromethyl)phenoxy)-9b-((4-fluorophenyl)sulfonyl)-2,3,3a,4,5,9b-hexahydro-1H-benzo[e]indole-3-carbonyl)cyclohexane-1-carboxylic acid]: the EC50 was determined as 10 nM. To `O=C(O)[C@H]1CC[C@H](C(=O)N2CC[C@@]3(S(=O)(=O)c4ccc(F)cc4)c4ccc(Cc5c(F)cccc5Cl)cc4CC[C@@H]23)CC1` [Example 5, (1R,4r)-4-((3aR,9bR)-7-(2-chloro-6-fluorobenzyl)-9b-((4-fluorophenyl)sulfonyl)-2,3,3a,4,5,9b-hexahydro-1H-benzo[e]indole-3-carbonyl)cyclohexanecarboxylic acid] belongs 7.1 nM; to `O=C(O)[C@H]1CC[C@H](C(=O)N2CC[C@@]3(S(=O)(=O)c4ccc(F)cc4)c4ccc(COc5c(Cl)cccc5Cl)cc4CC[C@@H]23)CC1` [Example 6, (1R,4r)-4-((3aR,9bR)-7-((2,6-dichlorophenoxy)methyl)-9b-((4-fluorophenyl)sulfonyl)-2,3,3a,4,5,9b-hexahydro-1H-benzo[e]indole-3-carbonyl)cyclohexanecarboxylic acid], 2.4 nM.

For the compound `CC1(C(=O)N2CC[C@@]3(S(=O)(=O)c4ccc(F)cc4)c4ccc(OCc5c(F)cccc5Cl)cc4CC[C@@H]23)CCS(=O)(=O)CC1` [Example 7, ((3aR,9bR)-7-((2-chloro-6-fluorobenzyl)oxy)-9b-((4-fluorophenyl)sulfonyl)-4,5-dihydro-1H-benzo[e]indol-3(2H,3aH,9bH)-yl)(4-methyl-1,1-dioxidotetrahydro-2H-thiopyran-4-yl)methanone], a half-maximal response (EC50) required 22 nM.

The compound `C[C@]1(C(=O)N2CC[C@@]3(S(=O)(=O)c4ccc(F)cc4)c4ccc(OCc5c(F)cccc5Cl)cc4CC[C@@H]23)CC[C@H](C(=O)O)CC1` [Example 9, (1R,4r)-4-((3aR,9bR)-7-((2-chloro-6-fluorobenzyl)oxy)-9b-((4-fluorophenyl)sulfonyl)-2,3,3a,4,5,9b-hexahydro-1H-benzo[e]indole-3-carbonyl)-4-methylcyclohexanecarboxylic acid] gave a concentration for a half-maximal effect (EC50) of 17 nM. To `O=C(O)[C@H]1CC[C@H](CN2CC[C@@]3(S(=O)(=O)c4ccc(F)cc4)c4ccc(OCc5c(F)cccc5C(F)(F)F)cc4CC[C@@H]23)CC1` [Example 10] belongs 39 nM; to `Cc1ccccc1Cc1ccc2c(c1)CC[C@H]1N(C(=O)[C@]3(C)CC[C@@H](C(=O)O)CC3)CC[C@@]21S(=O)(=O)c1ccc(F)cc1` [Example 12, (1R,4r)-4-((3aR,9bR)-9b-((4-fluorophenyl)sulfonyl)-7-(2-methylbenzyl)-2,3,3a,4,5,9b-hexahydro-1H-benzo[e]indole-3-carbonyl)-4-methylcyclohexane-1-carboxylic acid], 19 nM. With `O=C(C1CCC(B(O)O)CC1)N1CC[C@@]2(S(=O)(=O)c3ccc(F)cc3)c3ccc(OCc4c(F)cccc4C(F)(F)F)cc3CC[C@@H]12` (stereo partly drawn) [Example 13, (4-((3aR,9bR)-7-((2-fluoro-6-(trifluoromethyl)benzyl)oxy)-9b-((4-fluorophenyl)sulfonyl)-2,3,3a,4,5,9b-hexahydro-1H-benzo[e]indole-3-carbonyl)cyclohexyl)boronic acid] the figure was 1.5 nM; with `O=C(C1CCC(B(O)O)CC1)N1CC[C@@]2(S(=O)(=O)c3ccc(F)cc3)c3ccc(OCc4c(F)cccc4C(F)(F)F)cc3CC[C@@H]12` (stereo partly drawn) [Example 14, (4-((3aR,9bR)-7-((2-fluoro-6-(trifluoromethyl)benzyl)oxy)-9b-((4-fluorophenyl)sulfonyl)-2,3,3a,4,5,9b-hexahydro-1H-benzo[e]indole-3-carbonyl)cyclohexyl)boronic acid], 1.8 nM. `O=C(CC1CCS(=O)(=O)C1)N1CC[C@@]2(S(=O)(=O)c3ccc(F)cc3)c3ccc(OCc4c(F)cccc4Cl)cc3CC[C@@H]12` (stereo partly drawn) [Example 15, 3-{2-[(3aR,9bR)-7-[(2-chloro-6-fluorophenyl)methoxy]-9b-(4-fluorobenzenesulfonyl)-1H,2H,3H,3aH,4H,5H,9bH-benzo[e]indol-3-yl]-2-oxoethyl}-1λ^6-thiolane-1,1-dione] came in with an EC50 of 3.8 nM. For the compound `O=C(N1CC[C@@]2(S(=O)(=O)c3ccc(F)cc3)c3ccc(OCc4c(F)cccc4Cl)cc3CC[C@@H]12)C1(O)CCS(=O)(=O)CC1` [Example 16, 4-[(3aR,9bR)-7-[(2-chloro-6-fluorophenyl)methoxy]-9b-(4-fluorobenzenesulfonyl)-1H,2H,3H,3aH,4H,5H,9bH-benzo[e]indole-3-carbonyl]-4-hydroxy-1λ^6-thiane-1,1-dione], it took 5.5 nM to reach a half-maximal effect (EC50). To `O=C(C1CCS(=O)(=O)C1)N1CC[C@@]2(S(=O)(=O)c3ccc(F)cc3)c3ccc(OCc4c(F)cccc4Cl)cc3CC[C@@H]12` (stereo partly drawn) [Example 18, 3-[(3aR,9bR)-7-[(2-chloro-6-fluorophenyl)methoxy]-9b-(4-fluorobenzenesulfonyl)-1H,2H,3H,3aH,4H,5H,9bH-benzo[e]indole-3-carbonyl]-1λ^6-thiolane-1,1-dione] belongs 6 nM; to `CC1(C(=O)N2CC[C@@]3(S(=O)(=O)c4ccc(F)cc4)c4ccc(OCc5c(F)cccc5C(F)(F)F)cc4CC[C@@H]23)CCS(=O)(=O)CC1` [Example 19], 14 nM; to `O=C([C@@H](O)C(F)(F)F)N1CC[C@@]2(S(=O)(=O)c3ccc(F)cc3)c3ccc(OCc4c(F)cccc4C(F)(F)F)cc3CC[C@@H]12` [Example 20, (2R)-1-[(3aR,9bR)-7-{[2-fluoro-6-(trifluoromethyl)phenyl]methoxy} -9b-(4-fluorobenzenesulfonyl)-1H,2H,3H,3aH,4H,5H,9bH-benzo[e]indol-3-yl]-3,3,3-trifluoro-2-hydroxypropan-1-one], 42 nM. With `C[C@]1(C(=O)O)CC[C@H](C(=O)N2CC[C@@]3(S(=O)(=O)c4ccc(F)cc4)c4ccc(OCc5c(F)cccc5Cl)cc4CC[C@@H]23)CC1` [Example 21, (1r,4r)-4-[(3aR,9bR)-7-[(2-chloro-6-fluorophenyl)methoxy]-9b-(4-fluorobenzenesulfonyl)-1H,2H,3H,3aH,4H,5H,9bH-benzo[e]indole-3-carbonyl]-1-methylcyclohexane-1-carboxylic acid] the figure was 10 nM; with `C[C@@H]1C[C@@H](C(=O)O)CC[C@@H]1C(=O)N1CC[C@@]2(S(=O)(=O)c3ccc(F)cc3)c3ccc(OCc4c(F)cccc4Cl)cc3CC[C@@H]12` [Example 22, (1S,3R,4S)-4-[(3aR,9bR)-7-[(2-chloro-6-fluorophenyl)methoxy]-9b-(4-fluorobenzenesulfonyl)-1H,2H,3H,3aH,4H,5H9bH-benzo[e]indole-3-carbonyl]-3-methylcyclohexane-1-carboxylic acid], 17 nM.

In the case of `O=C(O)[C@H]1CC[C@](O)(C(=O)N2CC[C@@]3(S(=O)(=O)c4ccc(F)cc4)c4ccc(OCc5c(F)cccc5Cl)cc4CC[C@@H]23)CC1` [Example 23, (1s,4s)-4-[(3aR,9bR)-7-[(2-chloro-6-fluorophenyl)methoxy]-9b-(4-fluorobenzenesulfonyl)-1H,2H,3H,3aH,4H,5H,9bH-benzo[e]indole-3-carbonyl]-4-hydroxycyclohexane-1-carboxylic acid], the EC50 was determined as 55 nM.

In turn, `C[C@]1(C(=O)O)CC[C@H](C(=O)N2CC[C@@]3(S(=O)(=O)c4ccc(F)cc4)c4ccc(OCc5c(F)cccc5C(F)(F)F)cc4CC[C@@H]23)CC1` [Example 25, (1r,4r)-4-[(3aR,9bR)-7-{[2-fluoro-6-(trifluoromethyl)phenyl]methoxy}-9b-(4-fluorobenzenesulfonyl)-1H,2H,3H,3aH,4H,5H,9bH-benzo[e]indole-3-carbonyl]-1-methylcyclohexane-1-carboxylic acid] came in with an EC50 of 20 nM.

By EC50 is commonly meant the concentration giving half of the maximal effect.
